Experimental data from US9868744B2, “Heteroaromatic compounds and their use as dopamine D1 ligands” (PFIZER INC., priority 2014, dated 2018).
Read-outs that look alike come from different tables or passages of the source.

Molecular target: Human D1 Receptor (Homo sapiens (Human), UniProt P21728)
Assay: Human D1 receptor binding assay ([^3H]-SCH23390 competition)
Settings: read-out: Human D1 Receptor Binding, Ki (nM), Geometric mean of 2-4 determinations (unless otherwise indicated)
Method: D1 binding assays were performed using over-expressing LTK human cell lines. […] These ligand and tissue concentrations were used in time course studies to determine linearity and equilibrium conditions for binding. […] The pellet was resuspended in assay buffer [50 mM Tris (pH 7.4@ RT) containing 4 mM MgSO4 and 0.5 mM EDTA]. […] Non-specific binding was determined by radioligand binding in the presence of a saturating concentration of (+)-Butaclamol (10 μM), a D1 antagonist. After a 30 minute incubation period at 37° C., assay samples were rapidly filtered through Unifilter-96 GF/B PEI-coated filter plates and rinsed with 50 mM Tris buffer (pH 7.4 at 4° C.). […] Ki values were calculated according to the Cheng-Prusoff equation: […]

Sequence of Human D1 Receptor (P21728 whole entry): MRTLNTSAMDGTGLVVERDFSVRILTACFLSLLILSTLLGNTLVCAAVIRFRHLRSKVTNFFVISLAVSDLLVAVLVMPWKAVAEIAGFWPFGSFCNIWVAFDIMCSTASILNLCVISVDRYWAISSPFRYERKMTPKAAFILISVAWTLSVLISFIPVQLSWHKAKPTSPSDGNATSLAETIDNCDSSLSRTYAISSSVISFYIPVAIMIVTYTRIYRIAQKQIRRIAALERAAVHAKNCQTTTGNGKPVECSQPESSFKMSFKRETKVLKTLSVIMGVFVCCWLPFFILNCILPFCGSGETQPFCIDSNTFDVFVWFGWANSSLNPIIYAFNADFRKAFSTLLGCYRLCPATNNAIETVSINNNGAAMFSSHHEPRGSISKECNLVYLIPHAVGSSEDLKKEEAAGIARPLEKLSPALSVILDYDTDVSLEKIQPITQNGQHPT

Ki (competition with 0.5 nM [^3H]-SCH23390, over-expressing LTK human cell lines, 30 min at 37° C., values marked ^a are from a single determination)	Compound	Ki
–	Cc1cc(Oc2nccc3[nH]cnc23)ccc1-c1c(C)ncc2nccn12 [Example 2, 4-[3-methyl-4-(6-methylimidazo[1,2-a]pyrazin-5-yl)phenoxy]-1H-imidazo[4,5-c]pyridine]	374 nM
32.7 nM	Cc1cc(Oc2nccc3sncc23)ccc1-c1c(C)n[nH]c(=O)c1C [Example 10, 4,6-dimethyl-5-[2-methyl-4-([1,2]thiazolo[4,5-c]pyridin-4-yloxy)phenyl]pyridazin-3(2H)-one]	–
–	Cc1cc(Oc2ncnc3occc23)ccc1-c1c(C)ncnc1C [Example 1, 4-[4-(4,6-dimethylpyrimidin-5-yl)-3-methylphenoxy]furo[2,3-d]pyrimidine]	166 nM
